Measured values from the OPERA property sets (Mansouri et al. 2018).

Conditions: for log10 biotransformation half-life (days) / log10 BCF: fish

SMILES	boiling point [°C]	melting point [°C]	also measured
C1CCSC1	121	-96.1	log10 vapour pressure (mmHg): 1.26
CCCCCCCCCCCCCCCC(=O)Cl		12	
CC[N+](CC)(CC(=O)Nc1c(C)cccc1C)Cc1ccccc1.O=C([O-])c1ccccc1		168	
CO[Si](OC)(OC)OC	121		
COB(OC)OC	68	-31.6	log10 vapour pressure (mmHg): 2.13
CCC(C)OC=O (centres undefined)	97		
O=C1OC(C(O)CO)C(O)=C1O (centres undefined)		168	
CI	42.5	-66.4	log10 Henry constant (atm·m³/mol): -2.28; log10 Koa: 2.16; log10 vapour pressure (mmHg): 2.61
O=C1OCc2c(Cl)c(Cl)c(Cl)c(Cl)c21		210	log10 Koc (L/kg): 3.3; log10 vapour pressure (mmHg): -7.65
CCC(C1CCCCC1)C1CCCCC1	284	-23.5	
FC(F)(F)C(F)(F)C(F)(F)C(F)(F)C(F)(F)C(F)(F)I	118	-46	
CCOC(=O)C#Cc1ccccc1	265		
CNC(=O)Oc1cccc2c1OC(C)(C)O2			log10 Koc (L/kg): 2.75
CNCCN(C)C	117		
O=C1C(=Cc2ccccc2)CCCC1=Cc1ccccc1		118	
CC(CC(C(N)=O)(c1ccccc1)c1ccccc1)N(C)C (centres undefined)		137	
C#CCCCCCCCCCC	215	-19	
O=CNc1ccccc1	271	46	log10 vapour pressure (mmHg): -2.45
CCN(CC)CCN(CC)CC	192		
c1ccc(-c2nc3ccccc3s2)cc1	371	115	
CCOc1ccc2ccccc2c1C=O		115	
c1ccc([Se]c2ccccc2)cc1	302	2.5	
CCc1ccc(C)o1	118		
O=CC(=O)O			ready biodegradability: readily biodegradable

SMILES	boiling point [°C]	melting point [°C]	also measured
O=[N+]([O-])c1ccc(/C=C/c2cccc(CO)n2)o1		170	
Clc1ccc2c(Cl)ccnc2c1		93	
CCCCCCCCCCCCCCCCCCC1CC(=O)OC1=O (centres undefined)			ready biodegradability: not readily biodegradable
CC(=O)OC1CCC2(C)C(CCC3(C)C2C(=O)C=C2C4CC(C)(C(=O)O)CCC4(C)CCC23C)C1(C)C (centres undefined)		323	
CCCSCC	119	-117	log10 vapour pressure (mmHg): 1.27
CCCCCC(=O)c1ccccc1	265	27	
O=[n+]1[n-]c(-n2ccnc2)nc2ccc(Cl)cc21		182	log10 vapour pressure (mmHg): -8.65
C[Si](C)(C)Cc1ccccc1	190		
OC[C@@H]1CCCNC1		61	
Cc1cc2ccccc2nc1C	263	68.5	
CCC(C)CCCC(C)C (centres undefined)	160		log10 vapour pressure (mmHg): 0.469; log10 biotransformation half-life (days): 0.61
CC(=O)C=Cc1ccccc1	262	41.8	log10 vapour pressure (mmHg): -1.91; ready biodegradability: not readily biodegradable
CCC(=O)c1cccc(C)c1	235		
CC(C)COC(=O)c1ccccc1	242		
OC(c1ccc(Cl)cc1)(c1cncnc1)c1ccccc1Cl (centres undefined)		118	log10 Koc (L/kg): 2.78; log10 biotransformation half-life (days): 0.57
CC(C)C(Nc1ccc(C(F)(F)F)cc1Cl)C(=O)OC(C#N)c1cccc(Oc2ccccc2)c1 (centres undefined)			log10 Koc (L/kg): 5.71
c1ccc(C2CCCCC2)cc1	240	7.3	log10 vapour pressure (mmHg): -1.4
c1ccc2sc(SN3CCOCC3)nc2c1		85	log10 vapour pressure (mmHg): -5.48; ready biodegradability: not readily biodegradable
CCCS	67.8	-113	log10 Henry constant (atm·m³/mol): -2.39; log10 vapour pressure (mmHg): 2.19
CC[C@H]1C[C@@H]2C[C@H]3c4[nH]c5cc(OC)ccc5c4CC[N@@](C2)[C@@H]13		214	
CCOC(=O)c1c(C)cc(O)cc1O		132	
CC(=O)c1ccc(Br)s1		94.5	
CCC(CC)(CC)CC	146	-33.1	log10 vapour pressure (mmHg): 0.863
Oc1ccc(-c2ccccc2)cc1	305	166	ready biodegradability: not readily biodegradable; log10 BCF: 1.59; log10 biotransformation half-life (days): -0.81

SMILES	boiling point [°C]	melting point [°C]	also measured
C=C1C(=O)O[C@@H]2C=C(CO)CCC=C(C)C[C@H](OC(=O)C(=C)[C@@H](O)CO)[C@@H]12		143	
CN(C)CCc1c[nH]c2ccccc12		46	
CCS(=O)(=O)c1cccnc1S(=O)(=O)NC(=O)Nc1nc(OC)cc(OC)n1		177	log10 Koc (L/kg): 1.71
CC(CC(C)(C)O)OC(O)C(Cl)(Cl)Cl (centres undefined)		103	
O=S(=O)(Cl)c1ccc(Cl)cc1		51	
C=COCC(CC)CCCC (centres undefined)		-100	ready biodegradability: not readily biodegradable; log10 BCF: 2.78
Oc1c(I)cc(I)cc1I		160	
CN1C(=O)CC(c2ccccc2)C1=O (centres undefined)		72	
Nc1ncnc2c1ncn2[C@@H]1O[C@H](CO)C[C@H]1O		226	
Cn1cnc2ncnc-2c1N			log10 vapour pressure (mmHg): -11.8
CC(C)C1(C)N=C(c2ncccc2C(=O)O)NC1=O (centres undefined)		171	log10 Koc (L/kg): 2
CCSCCO	184	-100	
CSc1nc(NC(C)C)nc(NC(C)C)n1		119	log10 Koc (L/kg): 2.85; log10 vapour pressure (mmHg): -5.91
C=C(CCl)CCl	138	-14	
ClCc1ccccc1	179	-45	log10 vapour pressure (mmHg): 0.0899; ready biodegradability: readily biodegradable
CC(=O)c1cc(C)ccc1C	232	-18.1	
O=c1c(I)cn(CC(O)CO)cc1I (centres undefined)		161	
COC1=C[C@@H](C)[C@@H]2C[C@H]3OC(=O)C[C@H]4C(C)=C(OC)C(=O)[C@H]([C@@]2(C)C1=O)[C@@]34C		222	
CC1=CCC2CC1C2(C)C (racemic)	156	-60.5	
COC(=O)Nc1cccc(Cl)c1			log10 Koc (L/kg): 2.15
COc1cc(OC)nc(NC(=O)NS(=O)(=O)c2c(-c3nnn(C)n3)cnn2C)n1		170	log10 Koc (L/kg): 1.89; log10 vapour pressure (mmHg): -10.5
NC(Cc1cc(Br)c(O)c(Br)c1)C(=O)O (stereo in doubt)		245	
C=C(C)CCCCC	119	-90	log10 vapour pressure (mmHg): 1.3
N#CC(CCN1CCC(C(N)=O)(N2CCCCC2)CC1)(c1ccccc1)c1ccccc1		150	

SMILES	boiling point [°C]	melting point [°C]	also measured
Clc1c(Cl)c(Cl)c2c(oc3ccccc32)c1Cl		169	
Clc1cc(Cl)c(Cl)c(-c2ccccc2Cl)c1			log10 biotransformation half-life (days): 2.8
Nc1c2c(nc3ccccc13)CCCC2		184	
CCc1ccc(-c2ccccc2)cc1			ready biodegradability: not readily biodegradable; log10 BCF: 2.82; log10 biotransformation half-life (days): 0.06
CC[C@H](c1ccc(O)cc1)[C@@H](CC)c1ccc(O)cc1		186	
O=C(O)[C@H]1CC[C@H](C(=O)O)CC1		312	
CCCCCCCC(=O)OC(=O)CCCCCCC	282	-1	
C=C(C)C(=O)OC(C)C	125		
COC(=O)c1cccc(N)c1		39	
Cc1cccc2c1ccc1ccccc12		123	log10 Henry constant (atm·m³/mol): -4.31; log10 biodegradation half-life (days): 1.36; log10 vapour pressure (mmHg): -4.82; log10 biotransformation half-life (days): 0.63
CCC1(CC)COC(=O)NC1=O		97.5	
C=CC(C)C(C)O (centres undefined)	126		
C=C(C)c1ccc(C(C)C)cc1	221	-30.6	
CC(=O)OCC=Cc1ccccc1	265		
CCC(C)C(C)(CC)CC (centres undefined)	162		
C#CCCCCCCC	151	-50	log10 vapour pressure (mmHg): 0.797
FC(F)(F)CS	34.5		
O=C1NC(=O)C(c2ccccc2)(c2ccccc2)N1		296	ready biodegradability: not readily biodegradable
NCCNCCNCCNCCN	342	-30	
N=C(N)NC(=N)NCCc1ccccc1		176	
CCOP(=S)(OCC)SC(CCl)N1C(=O)c2ccccc2C1=O (centres undefined)		68	log10 vapour pressure (mmHg): -7.21
CC[C@H]1C[N@@]2CC[C@H]1C[C@H]2[C@H](O)c1ccnc2ccc(OCCC(C)C)cc12		152	
O=C1CCc2ccccc2C1	237	18	
NS(=O)(=O)c1ccc(CCCCO)cc1		78.5	

SMILES	boiling point [°C]	melting point [°C]	also measured
O=C(CCl)N1CCOCC1		37	
CC(C)CN=C=O	106		
CC(O)CC(C)(C)O (centres undefined)	198	-50	log10 vapour pressure (mmHg): -1.89; ready biodegradability: readily biodegradable
CCCC(Cn1cncn1)c1ccc(Cl)cc1Cl (centres undefined)		58.5	log10 vapour pressure (mmHg): -5.56; log10 biotransformation half-life (days): 1.19
COc1cc([C@@H]2c3cc4c(c(O)c3C[C@H]3COC(=O)[C@@H]32)OCO4)cc(OC)c1OC		234	
O=S1(=O)CCN(CN2CCS(=O)(=O)NC2)CN1		156	
COC1=C(O)C(=O)C(C)=C(O)C1=O		202	
O=c1cccc2n1CC1CNCC2C1 (centres undefined)		152	
ON=C1CCCCC1	206	90	log10 vapour pressure (mmHg): -1.55
CCCCC=CC=O	166		
c1ccc(Nc2ccccc2)cc1	302	52.9	log10 Koa: 7.64; log10 Koc (L/kg): 2.78; log10 vapour pressure (mmHg): -3.17; ready biodegradability: not readily biodegradable; log10 BCF: 2.18; log10 biotransformation half-life (days): 0.35
Nc1ccc(Br)cc1C(=O)O		220	
CC(=O)c1c(F)c(F)c(F)c(F)c1F		130	
C=CC(C)C(C)CC (centres undefined)	112		
O=c1ccn([C@H]2CC[C@@H](CO)O2)c(=O)[nH]1		128	
C=C(Cl)CSC(=S)N(CC)CC			log10 vapour pressure (mmHg): -2.66
FC(=C(F)C(F)(F)F)C(F)(F)F	1.5	-129	log10 vapour pressure (mmHg): 3.3
COc1cnc(NS(=O)(=O)c2ccc(N)cc2)nc1		215	
Cc1ccc(C)s1	136	-62.6	log10 vapour pressure (mmHg): 0.994
COc1ccc2c3c1O[C@H]1[C@@H](O)C=C[C@H]4[C@@H](C2)N(C)CC[C@@]341		158	
Cc1ccc(-c2nc3ccc(C)cn3c2CC(=O)N(C)C)cc1		196	
O=C(O)C(Cc1cc(I)c(O)c(I)c1)c1ccccc1 (centres undefined)		164	
CCN(CC)CCSC(=O)N(c1ccccc1)c1ccccc1		48.5	
OCc1ccco1	171	-14.6	log10 vapour pressure (mmHg): -0.215; ready biodegradability: readily biodegradable
